Here are results for nine compounds from patent US5376679A, “Bicyclic or tricyclic biocidal compounds” (Shell Internationale Research Maatschappij B.V., priority 1988, dated 1994).

Structures are written as SMILES.

One experiment relates to bacteria. The following applies: prior art; cited from earlier work.
The next experiment deals with fungi. The following applies: prior art; cited from earlier work.
Experiment [1] deals with Pseudocercosporella herpotrichoides. Kind of experiment: In vitro activity against wheat eyespot (Ph). The arrangement: Ph: activity against wheat eyespot: scale not given here. The following applies: for Ph: activity against wheat eyespot: in vitro, 100 ppm in agar, 11 days, activity grade 1 or 2, not defined. It is filed as cell-based. In a few lines:
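Compound was dispersed from acetone into half-strength potato dextrose agar at 100 ppm final. Two 5 mm mycelial plugs were placed on each plate, which was incubated 11 days at 20–22 °C in darkness. Diametric growth minus plug width was compared with acetone-only agar.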

The subject of a further experiment is Fusarium culmorum. The experiment in a line: Activity against seedling wheat blight, soil drench (Fs). It is filed as in vivo. Further details: scale not given here. The following applies: 10 kg/ha, 21 days, activity grade 1 or 2, not defined. In a few lines: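 Wheat seeds (var Waggoner) soaked 6 h at 22° C in 7×10^5 spores/ml, sown in sand; 1 day later soil drench at 10 kg/ha (0.36 g/l in 12% v/v acetone/water). Glasshouse at 25° C; at 21 days, stem-base and upper-root lesions scored visually against control seedlings.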

Experiment [2] relates to Erysiphe graminis f.sp. hordei. The experiment in a line: Direct antisporulant activity against barley powdery mildew (Eg). Format: in vivo. Further details: scale not given here. The following applies: foliar spray, 1 kg/ha; activity grade 1 or 2, not defined. In short, it runs like this:
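Barley seedlings (cv. Golden Promise) were dusted with conidia one day before a foliar spray of compound. Plants were then held at ambient glasshouse conditions for up to 7 days. Sporulating leaf area (%) was scored against untreated control plants.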

Another experiment has as its system Podosphaera leucotricha. The experiment in a line: Direct antisporulant activity against apple powdery mildew (Pl). Format: in vivo. The following applies: foliar spray, 1 kg/ha; activity grade 1 or 2, not defined. From the text: (h) Activity Against Apple Powdery Mildew (Podosphaera leucotricha; Pl) The test is a direct anti-sporulant one using a foliar spray. The upper surfaces of leaves of whole seedlings are inoculated by spraying with an aqueous suspension containing 10^5 conidia/ml 2 days prior to treatment with the test compound. The inoculated plants are immediately dried and kept at glasshouse ambient temperatures and humidity prior to treatment. […] After drying the plants are returned to a compartment at ambient temperature and humidity for up to 9 days, followed by assessment. Assessment is based on the percentage of the leaf area covered by sporulation compared with that on leaves of control plants.

Experiment [3] concerns Plasmopara viticola. The experiment in a line: Direct protectant activity against vine downy mildew (Pvp). Format: in vivo. Further details: Pvp: direct protectant activity against vine downy mildew: scale not given here. The following applies: foliar spray, 1 kg/ha; activity grade 1 or 2, not defined. In short, it runs like this:
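Lower leaf surfaces of whole vine plants (cv Cabernet Sauvignon) were sprayed at 1 kg/ha in water/acetone with surfactant, then inoculated 24 h later with 10^4 zoosporangia/ml. Scored as % leaf area with sporulation versus control leaves.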

The test system of the next experiment is Alternaria Solani. The experiment in a line: Direct protectant activity against tomato early blight (As). Note: dose 1000 g/ha. It is filed as in vivo. The arrangement: As: activity against tomato early blight: scale not given here. The following applies: foliar spray as under (a), 8 days; activity grade 1 or 2, not defined. On the procedure:
(g) Activity Against Tomato Early Blight (Alternaria Solani; As). The test is a direct protectant one using a foliar spray. The upper surfaces of leaves of young tomato plants are sprayed with a solution of active material as described in (a) above. After 24 hours under normal glasshouse conditions, the upper surfaces of the leaves are inoculated by spraying with an aqueous suspension containing 10^4 spores/ml. The inoculated plants are kept for 72 hours in a high humidity compartment and are then removed to lower humidity (50-70% relative humidity). Assessment is made 8 days after inoculation.

For experiment [4], the system named is Plasmopara viticola. Kind of experiment: Translaminar protectant test, vine downy mildew (Pvt). The following applies: secondary screening. Format: in vivo. From the text:
The fungicidal activity of certain of the compounds was investigated further, in secondary screening.

The test system of the next experiment is Leptosphaeria nodorum. The experiment in a line: Direct antisporulant activity against wheat leafspot (Ln). Format: in vivo. Further details: scale not given here. The following applies: foliar spray, 1 kg/ha; activity grade 1 or 2, not defined. In a few lines: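 Single-leaf wheat plants were spray-inoculated with 8×10^5 spores/ml and held 24 h at high humidity before foliar spray treatment. Plants were then kept 5 days in the glasshouse. Read-out is the percentage of leaf area sporulating, relative to untreated controls.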

For the next experiment, the system named is Botrytis cinerea. Kind of experiment: Direct protectant activity against vine grey mould (Bcp). The following applies: foliar spray, 1 kg/ha; activity grade 1 or 2, not defined. Format: in vivo. From the text: (b) Direct Protectant Activity Against Vine Grey Mould (Botrytis cinerea; Bcp) The test is a direct protectant one using a foliar spray and is effected as described under (a), with the difference that the leaves are inoculated by spraying with an aqueous solution containing 10^5 conidia/ml.

The subject of a further experiment is Pyricularia oryzae. It is filed as in vivo. The following applies: foliar spray, 1 kg/ha; activity grade 1 or 2, not defined.

For the compound `N#CN=[N+]([O-])c1ccccc1C(=O)O` [2-(cyano-N,N,O-azoxy)benzoic acid], the antibacterial activity result in the experiment on bacteria is listed as “low activity against bacteria”. Moreover, in the experiment on fungi, the antifungal activity entry was “no relevant activity against the tested fungi”.

On to `C[S+](C)[O-].N#CN=[N+]([O-])c1ccc(C(=O)O)cc1` [4-carboxyphenylazoxycyanide-dimethylsulphoxide], for which the antibacterial activity result in the experiment with bacteria was “Antibacterial and antifungal properties”. For the same compound, in the experiment on fungi, the antifungal activity result is “Antibacterial and antifungal properties”.

Regarding `COC(=O)N=Nc1cccc2c1OC(C)(C)C2` [Example 31], the “Ph: activity against wheat eyespot” value in experiment [1] was found to be 1. The “Fs: activity against seedling wheat blight” value in the experiment with Fusarium culmorum is 1. Moreover, in experiment [2], the “Eg: activity against barley powdery mildew” value (“Eg: activity” below) stood at 1. Also, the “Other: Pl, activity against apple powdery mildew” value (“Other: Pl, activity” below) with Podosphaera leucotricha is given as 1.

For `CCC1Cc2c(C)ccc(N=NC(=O)OC)c2O1` (stereo not drawn) [Example 37], in the experiment on Plasmopara viticola [3], the “Pvp: direct protectant activity against vine downy mildew” value is 1. In experiment [1], the “Ph: activity against wheat eyespot” value amounted to 1. The “As: activity against tomato early blight” value with Alternaria Solani turned out to be 1. For the same compound, the “Other: Pl, activity” value with Podosphaera leucotricha was determined as 1. Besides, the “activity against Pvt” value with Plasmopara viticola [4] is on record as “high activity”.

In the case of `C=CCOC(=O)N=Nc1ccc(C)c2c1OC(C)CC2` (stereo not drawn) [Example 40], the “Ln: activity against wheat leafspot” value in the experiment on Leptosphaeria nodorum was 1. Besides, in the experiment with Podosphaera leucotricha, the “Other: Pl, activity” value turned out to be 2.

In the case of `COC(=O)N=[N+]([O-])c1cccc2c1OC(C)(C)C2` [Example 43], the “Bcp: direct protectant activity against vine grey mould” value in the experiment with Botrytis cinerea worked out at 1. Also, in [1], the “Ph: activity against wheat eyespot” value came to 2. The “activity against Ph” value in experiment [1] (secondary screening) was “high activity”. In addition, the “Eg: activity” value in [2] stood at 2. Besides, in the experiment with Podosphaera leucotricha, the “Other: Pl, activity” value is listed as 1.

In the case of `COC(=O)N=[N+]([O-])c1ccc(C)c2c1OC(C)CC2` (stereo not drawn) [Example 46], the “Pvp: direct protectant activity against vine downy mildew” value in the experiment with Plasmopara viticola [3] stood at 2. The “Ph: activity against wheat eyespot” value in experiment [1] was 2. The “Ln: activity against wheat leafspot” value in the experiment with Leptosphaeria nodorum is reported as 2. The “Eg: activity” value in experiment [2] is given as 2. Further, the “As: activity against tomato early blight” value in the experiment with Alternaria Solani was found to be 2. Besides, the “Other: Po, activity against rice leaf blast” value in the experiment on Pyricularia oryzae turned out to be 2.

As to `COC(=O)c1ccc([N+]([O-])=NC#N)cc1` [calvatic acid methyl ester], in the experiment on bacteria, the antibacterial activity result was “antibacterial and antifungal activity”. In addition, the antifungal activity entry in the experiment with fungi is “antibacterial and antifungal activity”.

In the case of `N#CN=[N+]([O-])c1ccc(C(=O)O)cc1` [calvatic acid, 4 -(cyano-N,N,O-azoxy) benzoic acid], in the experiment with bacteria, the antibacterial activity result is “antibacterial and antifungal activity”. In addition, in the experiment with fungi, the antifungal activity entry is “antibacterial and antifungal activity”.
